Laboratory results reported in patent US20230257396A1, “MACROCYCLES AND THEIR USE” (BLOSSOMHILL THERAPEUTICS, INC., priority 2020, published 2023).

How the values were obtained:
Assay in all cases: KINOMEscan kinase binding assay (Eurofins/DiscoveRx), % Ctrl
Settings in all cases: 1 μM
kinases [1] = target: T1, kinases (Homo sapiens, UniProt P10721, L576P)
T1 construct: purchased Eurofins/DiscoveRx; host or cells: E. coli BL21-derived host (T7 phage display) for most kinases; HEK-293 for the rest
How it was run: (§1)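 Read-out is qPCR of kinase eluted from ligand-coated streptavidin beads after 1 h room-temperature competition with test compound. Values are % Ctrl at the tested concentration, lower meaning tighter binding.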

kinases [2] = target: T2, kinases (Homo sapiens, UniProt P00519, H396P)
T2 construct: purchased Eurofins/DiscoveRx; host or cells: E. coli BL21-derived host (T7 phage display) for most kinases; HEK-293 for the rest
How it was run: as §1

kinases [3] = target: T3, kinases (Homo sapiens, UniProt P16234)
T3 construct: purchased Eurofins/DiscoveRx; host or cells: E. coli BL21-derived host (T7 phage display) for most kinases; HEK-293 for the rest
How it was run: as §1

kinases [4] = target: T4, kinases (Homo sapiens, UniProt P36888, R834Q)
T4 construct: purchased Eurofins/DiscoveRx; host or cells: E. coli BL21-derived host (T7 phage display) for most kinases; HEK-293 for the rest
T4 sequence (P36888 27-993 R834Q): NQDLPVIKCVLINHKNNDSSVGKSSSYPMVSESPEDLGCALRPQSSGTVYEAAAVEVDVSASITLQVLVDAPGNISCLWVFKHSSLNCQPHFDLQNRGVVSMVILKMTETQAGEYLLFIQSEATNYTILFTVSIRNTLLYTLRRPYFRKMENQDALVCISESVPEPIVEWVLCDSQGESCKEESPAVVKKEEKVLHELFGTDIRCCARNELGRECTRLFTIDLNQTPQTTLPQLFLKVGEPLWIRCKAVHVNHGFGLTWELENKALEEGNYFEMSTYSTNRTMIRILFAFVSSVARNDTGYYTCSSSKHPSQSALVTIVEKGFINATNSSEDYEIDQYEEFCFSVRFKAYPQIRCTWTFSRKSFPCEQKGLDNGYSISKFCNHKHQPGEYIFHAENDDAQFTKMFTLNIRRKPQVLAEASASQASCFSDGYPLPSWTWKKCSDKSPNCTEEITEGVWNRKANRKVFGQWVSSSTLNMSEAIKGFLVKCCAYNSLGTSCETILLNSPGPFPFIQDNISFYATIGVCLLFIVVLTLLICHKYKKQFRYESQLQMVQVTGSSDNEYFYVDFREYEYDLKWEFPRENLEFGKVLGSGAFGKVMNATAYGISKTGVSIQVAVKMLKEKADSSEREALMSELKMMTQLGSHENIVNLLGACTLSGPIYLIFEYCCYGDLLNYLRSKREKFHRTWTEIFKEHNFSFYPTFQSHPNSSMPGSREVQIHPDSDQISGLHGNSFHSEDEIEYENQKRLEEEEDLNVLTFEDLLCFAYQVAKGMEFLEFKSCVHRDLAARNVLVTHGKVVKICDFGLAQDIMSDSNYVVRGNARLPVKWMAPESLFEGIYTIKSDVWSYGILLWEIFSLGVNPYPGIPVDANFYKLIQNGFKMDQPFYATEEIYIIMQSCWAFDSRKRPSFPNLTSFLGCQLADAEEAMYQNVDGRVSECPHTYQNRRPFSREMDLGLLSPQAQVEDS
How it was run: as §1

kinases [5] = target: T5, kinases (Homo sapiens, UniProt P07949, M918T)
T5 construct: purchased Eurofins/DiscoveRx; host or cells: E. coli BL21-derived host (T7 phage display) for most kinases; HEK-293 for the rest
How it was run: as §1

kinases [6] = target: T6, kinases (Homo sapiens, UniProt P00533, G719C)
T6 construct: purchased Eurofins/DiscoveRx; host or cells: E. coli BL21-derived host (T7 phage display) for most kinases; HEK-293 for the rest
How it was run: as §1

kinases [7] = target: T7, kinases (Homo sapiens, UniProt P00519)
T7 construct: purchased Eurofins/DiscoveRx; host or cells: E. coli BL21-derived host (T7 phage display) for most kinases; HEK-293 for the rest
How it was run: as §1

kinases [8] = target: T8, kinases (Homo sapiens, UniProt P00519, F317L)
T8 construct: purchased Eurofins/DiscoveRx; host or cells: E. coli BL21-derived host (T7 phage display) for most kinases; HEK-293 for the rest
How it was run: as §1

T3 sequence (P16234 24-1089): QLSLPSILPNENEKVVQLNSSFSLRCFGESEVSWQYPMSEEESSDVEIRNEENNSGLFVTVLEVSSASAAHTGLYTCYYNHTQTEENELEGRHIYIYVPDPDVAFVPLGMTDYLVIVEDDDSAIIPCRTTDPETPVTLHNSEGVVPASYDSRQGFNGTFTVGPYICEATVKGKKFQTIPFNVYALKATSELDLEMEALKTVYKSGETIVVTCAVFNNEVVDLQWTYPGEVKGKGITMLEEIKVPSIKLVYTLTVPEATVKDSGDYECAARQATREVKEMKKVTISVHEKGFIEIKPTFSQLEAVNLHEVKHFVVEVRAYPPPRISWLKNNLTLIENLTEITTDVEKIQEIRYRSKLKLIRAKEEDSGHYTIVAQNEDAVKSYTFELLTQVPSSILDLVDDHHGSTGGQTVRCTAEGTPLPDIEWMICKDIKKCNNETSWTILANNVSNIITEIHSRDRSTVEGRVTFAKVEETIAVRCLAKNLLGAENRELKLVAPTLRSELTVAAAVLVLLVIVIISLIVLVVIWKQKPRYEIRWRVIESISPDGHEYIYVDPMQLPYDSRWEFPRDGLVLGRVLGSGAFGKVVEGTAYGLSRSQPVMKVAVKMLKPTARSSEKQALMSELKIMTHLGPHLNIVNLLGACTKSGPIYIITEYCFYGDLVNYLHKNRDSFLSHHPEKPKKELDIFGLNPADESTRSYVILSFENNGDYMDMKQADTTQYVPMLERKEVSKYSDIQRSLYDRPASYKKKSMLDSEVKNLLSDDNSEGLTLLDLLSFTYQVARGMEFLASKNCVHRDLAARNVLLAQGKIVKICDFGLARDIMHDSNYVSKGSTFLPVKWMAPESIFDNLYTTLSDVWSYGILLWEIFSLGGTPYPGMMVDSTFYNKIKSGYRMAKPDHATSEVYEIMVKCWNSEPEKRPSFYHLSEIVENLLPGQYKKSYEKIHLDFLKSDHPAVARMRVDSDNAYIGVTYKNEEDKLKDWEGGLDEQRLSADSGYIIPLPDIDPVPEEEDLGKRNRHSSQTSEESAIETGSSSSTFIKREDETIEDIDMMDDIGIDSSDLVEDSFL
T1 sequence (P10721 26-976 L576P): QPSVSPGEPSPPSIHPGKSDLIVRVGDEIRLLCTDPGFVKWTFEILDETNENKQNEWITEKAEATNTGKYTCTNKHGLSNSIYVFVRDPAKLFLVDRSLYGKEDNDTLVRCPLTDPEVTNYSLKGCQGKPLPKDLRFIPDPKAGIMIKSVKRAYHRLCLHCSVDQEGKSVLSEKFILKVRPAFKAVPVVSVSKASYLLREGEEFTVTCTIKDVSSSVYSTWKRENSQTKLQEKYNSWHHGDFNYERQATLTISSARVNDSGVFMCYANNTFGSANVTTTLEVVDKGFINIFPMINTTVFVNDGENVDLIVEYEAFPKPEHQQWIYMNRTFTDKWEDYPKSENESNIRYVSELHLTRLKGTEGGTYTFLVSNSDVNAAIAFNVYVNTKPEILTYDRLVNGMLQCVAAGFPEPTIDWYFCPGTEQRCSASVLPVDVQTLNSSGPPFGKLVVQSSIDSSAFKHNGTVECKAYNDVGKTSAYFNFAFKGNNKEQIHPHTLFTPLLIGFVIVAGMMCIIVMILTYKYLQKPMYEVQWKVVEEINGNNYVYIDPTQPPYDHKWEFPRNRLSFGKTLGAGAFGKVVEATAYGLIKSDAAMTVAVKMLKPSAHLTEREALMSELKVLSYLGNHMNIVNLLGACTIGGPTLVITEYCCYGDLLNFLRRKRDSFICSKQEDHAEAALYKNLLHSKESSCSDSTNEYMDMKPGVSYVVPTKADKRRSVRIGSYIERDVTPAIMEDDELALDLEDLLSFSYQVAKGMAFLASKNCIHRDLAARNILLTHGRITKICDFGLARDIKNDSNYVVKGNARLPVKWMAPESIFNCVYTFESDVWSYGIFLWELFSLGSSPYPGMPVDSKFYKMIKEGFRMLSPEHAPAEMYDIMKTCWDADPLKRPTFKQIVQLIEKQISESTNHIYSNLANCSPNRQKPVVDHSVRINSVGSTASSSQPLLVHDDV
T5 sequence (P07949 29-1114 M918T): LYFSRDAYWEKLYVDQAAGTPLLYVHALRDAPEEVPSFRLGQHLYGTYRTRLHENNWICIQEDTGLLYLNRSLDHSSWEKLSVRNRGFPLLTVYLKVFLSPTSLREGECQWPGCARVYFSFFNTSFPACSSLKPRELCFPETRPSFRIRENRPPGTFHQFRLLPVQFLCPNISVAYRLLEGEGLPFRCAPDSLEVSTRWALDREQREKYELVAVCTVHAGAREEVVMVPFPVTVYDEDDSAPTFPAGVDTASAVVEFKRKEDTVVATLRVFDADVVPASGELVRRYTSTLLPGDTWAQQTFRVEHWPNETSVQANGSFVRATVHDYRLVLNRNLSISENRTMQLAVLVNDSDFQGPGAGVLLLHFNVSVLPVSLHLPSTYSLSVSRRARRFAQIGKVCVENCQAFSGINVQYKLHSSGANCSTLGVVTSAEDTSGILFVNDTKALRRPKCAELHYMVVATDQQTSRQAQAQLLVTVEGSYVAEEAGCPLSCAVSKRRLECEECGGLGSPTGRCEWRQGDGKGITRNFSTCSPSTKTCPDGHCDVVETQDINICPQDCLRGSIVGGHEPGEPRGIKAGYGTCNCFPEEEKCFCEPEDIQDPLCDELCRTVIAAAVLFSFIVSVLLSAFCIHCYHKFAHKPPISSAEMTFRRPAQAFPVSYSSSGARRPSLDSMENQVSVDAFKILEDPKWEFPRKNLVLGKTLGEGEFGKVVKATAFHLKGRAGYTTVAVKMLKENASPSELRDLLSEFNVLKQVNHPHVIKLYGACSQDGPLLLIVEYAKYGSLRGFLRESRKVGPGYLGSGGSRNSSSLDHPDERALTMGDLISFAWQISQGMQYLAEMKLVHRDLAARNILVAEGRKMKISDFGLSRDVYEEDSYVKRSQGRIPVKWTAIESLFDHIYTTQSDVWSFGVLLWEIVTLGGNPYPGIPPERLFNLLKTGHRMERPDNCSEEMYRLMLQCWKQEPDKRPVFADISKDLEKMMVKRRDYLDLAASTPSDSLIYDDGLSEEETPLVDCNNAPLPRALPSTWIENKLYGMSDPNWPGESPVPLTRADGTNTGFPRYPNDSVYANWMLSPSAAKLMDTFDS

SMILES | % Ctrl, KIT(L576P) (kinases [1]; KIT(L576P)) [% Ctrl] | % Ctrl, ABL1(H396P)-nonphosphorylated (kinases [2]; ABL1(H396P)-nonphosphorylated) [% Ctrl] | % Ctrl, ABL1(H396P)-phosphorylated (kinases [2]; ABL1(H396P)-phosphorylated) [% Ctrl] | % Ctrl, PDGFRA (kinases [3]; PDGFRA) [% Ctrl] | % Ctrl, FLT3(R834Q) (kinases [4]; FLT3(R834Q)) [% Ctrl] | % Ctrl, RET(M918T) (kinases [5]; RET(M918T)) [% Ctrl] | % Ctrl, EGFR(G719C) (kinases [6]; EGFR(G719C)) [% Ctrl] | % Ctrl, ABL1-nonphosphorylated (kinases [7]; ABL1-nonphosphorylated) [% Ctrl] | % Ctrl, ABL1-phosphorylated (kinases [7]; ABL1-phosphorylated) [% Ctrl] | % Ctrl, ABL1(F317L)-nonphosphorylated (kinases [8]; ABL1(F317L)-nonphosphorylated) [% Ctrl] | % Ctrl, ABL1(F317L)-phosphorylated (kinases [8]; ABL1(F317L)-phosphorylated) [% Ctrl] | further results
Cc1cc2c([nH]1)/C=C1\C(=O)Nc3cc(Cl)c(cc31)SCCOCCN(C)C2=O [Ex. 169, [16a(17)Z]-19-chloro-5-methyl-6,7,9,10-tetrahydro-1H-12,14-(ethanediylidene)dipyrrolo[3,4-g:2′,3′-j][1,4,13]oxathiazacyclopentadecine-4,16(5H,15H)-dione] |  |  |  |  |  |  |  |  |  |  |  | % Ctrl, KIT(L576P) (kinases [1]; target KIT(L576P)): 0 % Ctrl; % Ctrl, ABL1(H396P)-nonphosphorylated (kinases [2]; target ABL1(H396P)-nonphosphorylated): 0 % Ctrl; % Ctrl, ABL1(H396P)-phosphorylated (kinases [2]; target ABL1(H396P)-phosphorylated): 0 % Ctrl; % Ctrl, PDGFRA (kinases [3]; target PDGFRA): 16 % Ctrl; % Ctrl, FLT3(R834Q) (kinases [4]; target FLT3(R834Q)): 5.9 % Ctrl; % Ctrl, RET(M918T) (kinases [5]; target RET(M918T)): 0 % Ctrl; % Ctrl, EGFR(G719C) (kinases [6]; target EGFR(G719C)): 100 % Ctrl; % Ctrl, ABL1-nonphosphorylated (kinases [7]; target ABL1-nonphosphorylated): 0 % Ctrl; % Ctrl, ABL1-phosphorylated (kinases [7]; target ABL1-phosphorylated): 0 % Ctrl; % Ctrl, ABL1(F317L)-nonphosphorylated (kinases [8]; target ABL1(F317L)-nonphosphorylated): 0.6 % Ctrl; % Ctrl, ABL1(F317L)-phosphorylated (kinases [8]; target ABL1(F317L)-phosphorylated): 0.1 % Ctrl
Cc1cc2c([nH]1)/C=C1\C(=O)Nc3ccc(cc31)-c1c(C)n[nH]c1CNCCN(C)C2=O [Ex. 127, [3a(4)Z]-6,9,16-trimethyl-9,10,11,12,13,14-hexahydro-1,17-(ethanediylidene)pyrazolo[4,3-m]dipyrrolo[3,2-f:3′,4′-i][1,4]diazacyclopentadecine-3,8(2H,5H)-dione] | 73 | 0 | 0 | 47 | 13 | 2.1 | 90 | 0.05 | 0 | 4.1 | 0.8 | 
Cc1cc2c([nH]1)/C=C1\C(=O)Nc3cc(Cl)c(cc31)OCCO[C@@H](C(=O)N(C)C)CN(C)C2=O [Ex. 137, [7R,16a(17)Z]-19-chloro-N,N,2,5-tetramethyl-4,16-dioxo-4,5,6,7,9,10,15,16-octahydro-1H-12,14-(ethanediylidene)dipyrrolo[3,2-i:3′,4′-l][1,4,7]dioxazacyclopentadecine-7-carboxamide] | 39 | 38 | 65 | 72 | 65 | 6.4 | 100 | 43 | 61 | 76 | 67 | 
Cc1cc2c([nH]1)/C=C1\C(=O)Nc3ccc(cc31)-c1ccnn1CCOCCN(C)C2=O [Ex. 41, [19a(20)Z]-2,5-dimethyl-6,7,9,10-tetrahydro-1H-15,17-(ethanediylidene)pyrazolo[1,5-d]dipyrrolo[3,4-h:2′,3′-k][1,4,14]oxadiazacyclohexadecine-4,19(5H,18H)-dione] | 40 | 6.1 | 5 | 19 | 15 | 45 | 88 | 7.1 | 56 | 26 | 53 | 
Cc1cc2c([nH]1)/C=C1\C(=O)Nc3cnc(cc31)-c1cnn(C)c1COCCNC2=O [Ex.123, [3a(4)Z]-6,14-dimethyl-10,11,13,14-tetrahydro-2H-17,1-(azenometheno)pyrazolo[4,3-m]dipyrrolo[3,2-f:3′,4′-i][1,4]oxazacyclopentadecine-3,8(5H,9H)-dione] | 97 | 100 | 100 | 100 | 100 | 89 | 90 | 83 | 100 | 100 | 100 | 
Cc1cc2c([nH]1)/C=C1\C(=O)Nc3ccc(cc31)O[C@@H](C)COCCN(C)C2=O [Ex. 92, [10S,16a(17)Z]-2,5,10-trimethyl-6,7,9,10-tetrahydro-1H-12,14-(ethanediylidene)dipyrrolo[3,2-i:3′,4′-l][1,4,7]dioxazacyclopentadecine-4,16(5H,15H)-dione] | 87 | 0.3 | 46 | 95 | 75 | 59 | 100 | 0 | 25 | 6.5 | 76 | 
Cc1cc2c([nH]1)/C=C1\C(=O)Nc3ccc(cc31)-c1cnn(C)c1CN(C)CCN(C)C2=O [Ex. 126, [3a(4)Z]-6,9,12,14-tetramethyl-9,10,11,12,13,14-hexahydro-1,17-(ethanediylidene)pyrazolo[4,3-m]dipyrrolo[3,2-f:3′,4′-i][1,4]diazacyclopentadecine-3,8(2H,5H)-dione] | 0 | 0 | 0.1 | 1.2 | 0 | 0 | 86 | 0 | 0.1 | 1.7 | 0 | 
